Assay results taken from patent publication US5358712A, “Radiopharmaceutical agents for the detection of Alzheimer's disease” (Regents of the University of Minnesota, priority 1993, dated 1994).

Experiments:
[1] = Tissue distribution (biodistribution) of radioiodinated compound in the rat; conditions: rat, iv; for tissue uptake at 1 h: 60 min; for tissue uptake at 3 h: 180 min
[2] = Blocking experiments: inhibition of radiotracer accumulation in the rat by coadministered compound; format: in vivo, rat (male Wistar); conditions: rat, iv, rat, iv, 60 min
Method: *Animals in group 1 received an iv injection of (+)4-[^125 l]HIPP
only. For groups 2, 3, and 4, the radiotracer was coadministered with the
hydrochlorides of (+)7 (0.53 mg/kg), (-)7 (0.53 mg/kg) and vesamicol (0.3
Four groups of male Wistar rats (n=3) were used in these experiments. All animals received an iv dose of 8-10 μCi of the radiotracer in 0.1 ml of 50% aq. ethanol. Additionally, in groups 2, 3 and 4, the radiotracer was coadministered with (+)-HBrPP.HCl(1.3 μmol/kg), (-)-HBrPP.HCl(1.3 μmol/kg) and (dl)-vesamicol hydrochloride (1.1 μmol/kg), respectively. At 60 min. post-injection, blood was collected by cardiac puncture and the animals sacrificed as described above. The data was analyzed as outlined above.
NOTE: The dose of radiotracer injected was 5-7 mCi. Group I was the
control, injected with the radiotracer only. Group II included the
simultaneous injection of "cold"(dl)3-HIPP (HCl) (0.53 mg/kg). Group III
included the simultaneous injection of (dl) vesamicol (HCl) (0.31 mg/kg).
All rats were sacrificed at one hour postinjection.
NOTE: Group I was the control, injected with the radiotracer only. Group
II included the simultaneous injection of "cold"(dl)3-HIPP (HCl) (0.53
mg/kg). Group III included the simultaneous injection of (dl) vesamicol
hydrochloride (0.31 mg/kg). The dose of radiotracer was 8-9 μCi. All
rats were sacrificed at one hour postinjection.
NOTE: Group I received (+)[^125 l]13 only. Group II received the (+)
radiotracer coinjected with 0.31 mg/kg (dl)vesamicol hydrochloride. Group
III received (-)[^125 l]13 only. Group IV received the (-) radiotrace
coinjected with 0.31 mg/kg (dl)vesamicol hydrochloride. All animals were
sacrificed at one hour postinjection. The dose of radiotracer injected pe

[3] = kidney, radioactivity in kidney
[4] = muscle, radioactivity in muscle
[5] = spleen, radioactivity in spleen
[6] = blood, radiotracer only (control), read-out: radioactivity in blood
[7] = brain, + (dl)-vesamicol HCl 0.3 (Table 3) or 0.31 mg/kg, read-out: radioactivity in brain
[8] = brain, radiotracer only (control), read-out: radioactivity in brain
[9] = heart, + (dl)-vesamicol HCl 0.3 (Table 3) or 0.31 mg/kg, read-out: radioactivity in heart
[10] = heart, radiotracer only (control), read-out: radioactivity in heart
[11] = kidney, + (dl)-vesamicol HCl 0.3 (Table 3) or 0.31 mg/kg, read-out: radioactivity in kidney
[12] = kidney, radiotracer only (control), read-out: radioactivity in kidney
[13] = liver, + (dl)-vesamicol HCl 0.3 (Table 3) or 0.31 mg/kg, read-out: radioactivity in liver
[14] = liver, radiotracer only (control), read-out: radioactivity in liver
[15] = lung, + (dl)-vesamicol HCl 0.3 (Table 3) or 0.31 mg/kg, read-out: radioactivity in lung
[16] = lung, radiotracer only (control), read-out: radioactivity in lung
[17] = muscle, + (dl)-vesamicol HCl 0.3 (Table 3) or 0.31 mg/kg, read-out: radioactivity in muscle
[18] = muscle, radiotracer only (control), read-out: radioactivity in muscle
[19] = spleen, + (dl)-vesamicol HCl 0.3 (Table 3) or 0.31 mg/kg, read-out: radioactivity in spleen
[20] = spleen, radiotracer only (control), read-out: radioactivity in spleen

OC(Cc1cccc([125I])c1)CN1CCC(c2ccccc2)CC1 (single isomer, unassigned; (+)) [(+)-[^125 l]12, 2-Hydroxyl-3-(3-iodophenyl)-1-[1-(4-phenylpiperidinyl)]propane]
tissue uptake at 5 min ([1]; blood, radioactivity in blood): 0.08 %ID/g | tissue uptake at 1 h ([1]; blood, radioactivity in blood): 0.09 %ID/g | tissue uptake at 3 h ([1]; blood, radioactivity in blood): 0.08 %ID/g | tissue uptake at 5 min ([1]; brain, radioactivity in brain): 1.03 %ID/g | tissue uptake at 1 h ([1]; brain, radioactivity in brain): 0.82 %ID/g | tissue uptake at 5 min ([1]; heart, radioactivity in heart): 1.3 %ID/g | tissue uptake at 1 h ([1]; heart, radioactivity in heart): 0.38 %ID/g | tissue uptake at 3 h ([1]; heart, radioactivity in heart): 0.16 %ID/g | tissue uptake at 5 min [1, 3]: 2.55 %ID/g | tissue uptake at 1 h [1, 3]: 1.28 %ID/g | tissue uptake at 3 h [1, 3]: 0.75 %ID/g | tissue uptake at 5 min ([1]; liver, radioactivity in liver): 1.17 %ID/g | tissue uptake at 1 h ([1]; liver, radioactivity in liver): 0.89 %ID/g | tissue uptake at 3 h ([1]; liver, radioactivity in liver): 0.51 %ID/g | tissue uptake at 5 min ([1]; lung, radioactivity in lung): 7.34 %ID/g | tissue uptake at 1 h ([1]; lung, radioactivity in lung): 1.42 %ID/g | tissue uptake at 3 h ([1]; lung, radioactivity in lung): 0.61 %ID/g | tissue uptake at 5 min [1, 4]: 0.27 %ID/g | tissue uptake at 1 h [1, 4]: 0.16 %ID/g | tissue uptake at 3 h [1, 4]: 0.12 %ID/g | tissue uptake at 5 min [1, 5]: 0.5 %ID/g | tissue uptake at 1 h [1, 5]: 1.12 %ID/g | tissue uptake at 3 h [1, 5]: 0.66 %ID/g | tissue uptake at 1 h ([2]; blood, + (dl)-vesamicol HCl 0.3 (Table 3) or 0.31 mg/kg, read-out: radioactivity in blood): 0.12 %ID/g | tissue uptake at 1 h ([2]; blood, + cold (dl)3-HIPP HCl 0.53 mg/kg, read-out: radioactivity in blood): 0.13 %ID/g | tissue uptake at 1 h [2, 6]: 0.09 %ID/g | tissue uptake at 1 h [2, 7]: 0.26 %ID/g | tissue uptake at 1 h ([2]; brain, + cold (dl)3-HIPP HCl 0.53 mg/kg, read-out: radioactivity in brain): 0.24 %ID/g | tissue uptake at 1 h [2, 8]: 0.76 %ID/g | tissue uptake at 1 h [2, 9]: 0.13 %ID/g | tissue uptake at 1 h ([2]; heart, + cold (dl)3-HIPP HCl 0.53 mg/kg, read-out: radioactivity in heart): 0.15 %ID/g | tissue uptake at 1 h [2, 10]: 0.36 %ID/g | tissue uptake at 1 h [2, 11]: 0.55 %ID/g | tissue uptake at 1 h ([2]; kidney, + cold (dl)3-HIPP HCl 0.53 mg/kg, read-out: radioactivity in kidney): 0.62 %ID/g | tissue uptake at 1 h [2, 12]: 1.48 %ID/g | tissue uptake at 1 h [2, 13]: 0.87 %ID/g | tissue uptake at 1 h ([2]; liver, + cold (dl)3-HIPP HCl 0.53 mg/kg, read-out: radioactivity in liver): 0.71 %ID/g | tissue uptake at 1 h [2, 14]: 0.86 %ID/g | tissue uptake at 1 h [2, 15]: 0.71 %ID/g | tissue uptake at 1 h ([2]; lung, + cold (dl)3-HIPP HCl 0.53 mg/kg, read-out: radioactivity in lung): 0.92 %ID/g | tissue uptake at 1 h [2, 16]: 1.52 %ID/g | tissue uptake at 1 h [2, 17]: 0.12 %ID/g | tissue uptake at 1 h ([2]; muscle, + cold (dl)3-HIPP HCl 0.53 mg/kg, read-out: radioactivity in muscle): 0.11 %ID/g | tissue uptake at 1 h [2, 18]: 0.17 %ID/g | tissue uptake at 1 h [2, 19]: 0.48 %ID/g | tissue uptake at 1 h ([2]; spleen, + cold (dl)3-HIPP HCl 0.53 mg/kg, read-out: radioactivity in spleen): 0.5 %ID/g | tissue uptake at 1 h [2, 20]: 1.14 %ID/g

OC(CN1CCC(c2ccccc2)CC1)c1ccc([125I])cc1 (single isomer, unassigned; (+)) [(+)-[^125 l]13, 1-(4-Iodophenyl)-2-(4-phenylpiperidinyl)ethanol]
tissue uptake at 5 min ([1]; blood, radioactivity in blood): 0.1 %ID/g | tissue uptake at 1 h ([1]; blood, radioactivity in blood): 0.03 %ID/g | tissue uptake at 5 min ([1]; brain, radioactivity in brain): 1.43 %ID/g | tissue uptake at 1 h ([1]; brain, radioactivity in brain): 1.29 %ID/g | tissue uptake at 5 min ([1]; heart, radioactivity in heart): 1.34 %ID/g | tissue uptake at 1 h ([1]; heart, radioactivity in heart): 0.25 %ID/g | tissue uptake at 5 min [1, 3]: 3.12 %ID/g | tissue uptake at 1 h [1, 3]: 1.86 %ID/g | tissue uptake at 5 min ([1]; liver, radioactivity in liver): 1.19 %ID/g | tissue uptake at 1 h ([1]; liver, radioactivity in liver): 2.18 %ID/g | tissue uptake at 5 min ([1]; lung, radioactivity in lung): 7.87 %ID/g | tissue uptake at 5 min [1, 4]: 0.33 %ID/g | tissue uptake at 1 h [1, 4]: 0.14 %ID/g | tissue uptake at 5 min [1, 5]: 0.92 %ID/g | tissue uptake at 1 h [1, 5]: 0.9 %ID/g | tissue uptake at 1 h [2, 6]: 0.05 %ID/g | tissue uptake at 1 h [2, 7]: 0.24 %ID/g | tissue uptake at 1 h [2, 8]: 0.87 %ID/g | tissue uptake at 1 h [2, 9]: 0.08 %ID/g | tissue uptake at 1 h [2, 10]: 0.22 %ID/g | tissue uptake at 1 h [2, 11]: 0.41 %ID/g | tissue uptake at 1 h [2, 12]: 1.87 %ID/g | tissue uptake at 1 h [2, 13]: 2.53 %ID/g | tissue uptake at 1 h [2, 14]: 1.85 %ID/g | tissue uptake at 1 h [2, 15]: 0.42 %ID/g | tissue uptake at 1 h [2, 16]: 1.01 %ID/g | tissue uptake at 1 h [2, 17]: 0.06 %ID/g | tissue uptake at 1 h [2, 18]: 0.14 %ID/g | tissue uptake at 1 h [2, 19]: 0.33 %ID/g | tissue uptake at 1 h [2, 20]: 0.88 %ID/g
